These are literature values, as cited in patent publication US7510874B2, “Stable cell lines expressing HERG1a and HERG1b” (priority 2003, dated 2009).

Molecules are shown by their SMILES.

The data set addresses IKr currents (Homo sapiens, UniProt Q12809). The following applies: background statement with literature references.

IKr currents, sequence (Q12809 whole entry): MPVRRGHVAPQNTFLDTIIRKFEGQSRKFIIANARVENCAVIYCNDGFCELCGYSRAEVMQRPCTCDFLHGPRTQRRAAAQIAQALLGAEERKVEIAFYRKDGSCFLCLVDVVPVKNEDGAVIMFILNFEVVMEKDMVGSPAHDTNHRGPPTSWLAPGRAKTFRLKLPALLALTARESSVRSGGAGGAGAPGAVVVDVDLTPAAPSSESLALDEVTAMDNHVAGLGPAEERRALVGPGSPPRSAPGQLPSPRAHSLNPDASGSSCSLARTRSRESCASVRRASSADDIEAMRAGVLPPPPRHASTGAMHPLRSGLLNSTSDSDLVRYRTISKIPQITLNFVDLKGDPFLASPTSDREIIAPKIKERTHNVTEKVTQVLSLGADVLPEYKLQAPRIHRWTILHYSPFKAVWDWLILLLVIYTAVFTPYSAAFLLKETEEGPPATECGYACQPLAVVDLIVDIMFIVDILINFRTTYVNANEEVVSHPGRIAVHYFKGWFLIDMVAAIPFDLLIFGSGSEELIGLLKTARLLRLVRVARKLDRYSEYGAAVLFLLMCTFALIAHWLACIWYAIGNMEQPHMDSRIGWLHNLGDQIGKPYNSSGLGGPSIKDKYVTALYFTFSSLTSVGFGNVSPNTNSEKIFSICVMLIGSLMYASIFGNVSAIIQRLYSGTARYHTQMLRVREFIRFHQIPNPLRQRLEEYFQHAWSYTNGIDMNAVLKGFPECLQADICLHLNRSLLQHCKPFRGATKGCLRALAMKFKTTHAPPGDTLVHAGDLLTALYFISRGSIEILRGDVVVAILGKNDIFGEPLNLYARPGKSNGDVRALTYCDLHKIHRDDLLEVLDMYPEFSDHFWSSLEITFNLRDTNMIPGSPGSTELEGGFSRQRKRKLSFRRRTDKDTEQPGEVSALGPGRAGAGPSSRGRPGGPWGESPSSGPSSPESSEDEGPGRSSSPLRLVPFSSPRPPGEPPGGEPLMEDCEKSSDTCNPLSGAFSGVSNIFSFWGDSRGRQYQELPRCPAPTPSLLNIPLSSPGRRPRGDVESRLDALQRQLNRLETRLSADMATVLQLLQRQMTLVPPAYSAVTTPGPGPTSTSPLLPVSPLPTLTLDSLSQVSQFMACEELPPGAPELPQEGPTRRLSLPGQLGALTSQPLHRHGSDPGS

As to `COc1cc(N)c(Cl)cc1C(=O)NC1CCN(CCCOc2ccc(F)cc2)CC1OC` (stereo not shown) [cisapride], the “block of IKr currents (cause of acquired LQTS)” value is “block of IKr currents”.
